Measured values from the supplement of paper PMC10307832.

Assays:
Experiment in all cases: relative viability (nuclei count vs DMSO), 5 days (fraction); higher = more cells survive
[1] = test system: NCI-H2085
How it was run: (§1)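 Relative viability equals treated-well nuclei counts divided by vehicle-well nuclei counts. Counts came from 4× images of lung cancer cell lines grown in 1536-well plates for 5 days after pin-tool dosing on the day after seeding. Dosing used one drug alone or a fixed anchor-drug dose plus five library-drug doses (not always all listed) in √10 steps, and values are medians of duplicate plates.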

[2] = test system: LXF-289
How it was run: as §1

[3] = test system: NCI-H661
How it was run: as §1

[4] = test system: LC-2-ad
How it was run: as §1

[5] = test system: EMC-BAC-2
How it was run: as §1

[6] = test system: H3255
How it was run: as §1

[7] = test system: COR-L 105
How it was run: as §1

[8] = test system: CAL-12T
How it was run: as §1

[9] = test system: NCI-H2347
How it was run: as §1

[10] = test system: PC-3 [JPC-3]
How it was run: as §1

[11] = test system: EKVX
How it was run: as §1

[12] = test system: NCI-H1437
How it was run: as §1

[13] = test system: NCI-H1651
How it was run: as §1

[14] = test system: NCI-H2228
How it was run: as §1

[15] = test system: SK-LU-1
How it was run: as §1

[16] = test system: NCI-H1755
How it was run: as §1

[17] = test system: NCI-H1915
How it was run: as §1

[18] = test system: NCI-H2087
How it was run: as §1

O=c1[nH]c2ccccc2n1C1CCN(CCCC(c2ccc(F)cc2)c2ccc(F)cc2)CC1 [Pimozide] + CC(C)C[C@H](NC(=O)[C@H](Cc1ccccc1)NC(=O)c1cnccn1)B(O)O [Bortezomib] (partner 0.002 µM)
relative viability ([1]; first compound 0.08 µM): 0.972 | relative viability ([1]; first compound 0.253 µM): 1.01 | relative viability ([1]; first compound 0.8 µM): 1.04 | relative viability ([1]; first compound 2.53 µM): 1.13 | relative viability ([1]; first compound 8 µM): 0.741 | relative viability ([2]; first compound 0.08 µM): 0.989 | relative viability ([2]; first compound 0.253 µM): 0.966 | relative viability ([2]; first compound 0.8 µM): 0.917 | relative viability ([2]; first compound 2.53 µM): 0.94 | relative viability ([2]; first compound 8 µM): 0.865 | relative viability ([3]; first compound 0.08 µM): 0.672 | relative viability ([3]; first compound 0.253 µM): 0.699 | relative viability ([3]; first compound 0.8 µM): 0.719 | relative viability ([3]; first compound 2.53 µM): 0.725 | relative viability ([3]; first compound 8 µM): 0.852 | relative viability ([4]; first compound 0.08 µM): 1.09 | relative viability ([4]; first compound 0.253 µM): 0.927 | relative viability ([4]; first compound 0.8 µM): 0.935 | relative viability ([4]; first compound 2.53 µM): 1.03 | relative viability ([4]; first compound 8 µM): 0.996 | relative viability ([5]; first compound 0.08 µM): 0.992 | relative viability ([5]; first compound 0.253 µM): 1.03 | relative viability ([5]; first compound 0.8 µM): 0.972 | relative viability ([5]; first compound 2.53 µM): 1.04 | relative viability ([5]; first compound 8 µM): 1.05 | relative viability ([6]; first compound 0.253 µM): 0.802 | relative viability ([6]; first compound 0.8 µM): 0.732 | relative viability ([6]; first compound 2.53 µM): 0.759 | relative viability ([6]; first compound 8 µM): 0.732 | relative viability ([7]; first compound 0.253 µM): 0.749 | relative viability ([7]; first compound 0.8 µM): 0.659 | relative viability ([7]; first compound 2.53 µM): 0.672 | relative viability ([7]; first compound 8 µM): 0.479 | relative viability ([8]; first compound 0.08 µM): 0.875 | relative viability ([8]; first compound 0.253 µM): 0.979 | relative viability ([8]; first compound 0.8 µM): 0.821 | relative viability ([8]; first compound 2.53 µM): 0.87 | relative viability ([8]; first compound 8 µM): 0.828 | relative viability ([9]; first compound 0.08 µM): 1 | relative viability ([9]; first compound 0.253 µM): 0.858 | relative viability ([9]; first compound 0.8 µM): 0.748 | relative viability ([9]; first compound 2.53 µM): 0.955 | relative viability ([9]; first compound 8 µM): 0.883 | relative viability ([10]; first compound 0.253 µM): 0.803 | relative viability ([10]; first compound 0.8 µM): 0.726 | relative viability ([10]; first compound 2.53 µM): 0.884 | relative viability ([10]; first compound 8 µM): 0.667 | relative viability ([11]; first compound 0.253 µM): 1.11 | relative viability ([11]; first compound 0.8 µM): 0.992 | relative viability ([11]; first compound 2.53 µM): 0.994 | relative viability ([11]; first compound 8 µM): 0.937 | relative viability ([12]; first compound 0.08 µM): 0.492 | relative viability ([12]; first compound 0.253 µM): 0.45 | relative viability ([12]; first compound 0.8 µM): 0.423 | relative viability ([12]; first compound 2.53 µM): 0.507 | relative viability ([12]; first compound 8 µM): 0.403 | relative viability ([13]; first compound 0.08 µM): 0.903 | relative viability ([13]; first compound 0.8 µM): 0.993 | relative viability ([13]; first compound 2.53 µM): 0.897 | relative viability ([13]; first compound 8 µM): 0.972 | relative viability ([14]; first compound 0.08 µM): 1.11 | relative viability ([14]; first compound 0.253 µM): 0.858 | relative viability ([14]; first compound 0.8 µM): 0.904 | relative viability ([14]; first compound 2.53 µM): 0.728 | relative viability ([14]; first compound 8 µM): 0.559 | relative viability ([15]; first compound 0.08 µM): 1.09 | relative viability ([15]; first compound 0.253 µM): 1.21 | relative viability ([15]; first compound 0.8 µM): 0.741 | relative viability ([15]; first compound 2.53 µM): 0.899 | relative viability ([15]; first compound 8 µM): 1.11 | relative viability ([16]; first compound 0.08 µM): 0.881 | relative viability ([16]; first compound 0.253 µM): 0.91 | relative viability ([16]; first compound 0.8 µM): 0.844 | relative viability ([16]; first compound 2.53 µM): 0.937 | relative viability ([16]; first compound 8 µM): 0.674 | relative viability ([17]; first compound 0.08 µM): 0.947 | relative viability ([17]; first compound 0.253 µM): 0.908 | relative viability ([17]; first compound 0.8 µM): 0.537 | relative viability ([17]; first compound 2.53 µM): 0.936 | relative viability ([17]; first compound 8 µM): 0.918 | relative viability ([18]; first compound 0.08 µM): 0.86 | relative viability ([18]; first compound 0.253 µM): 0.815 | relative viability ([18]; first compound 0.8 µM): 0.764 | relative viability ([18]; first compound 2.53 µM): 0.765 | relative viability ([18]; first compound 8 µM): 0.585
